Test results from patent publication US20210347794A1, “Phosphate Derivatives of Indole Compounds and Their Use” (ARIAGEN, INC., priority 2018, published 2021).

Assays:
[1] = In vivo pharmacokinetic study in rats, IV or oral dose of ARI-160
Protocol: This example describes pharmacokinetic (PK) studies of ARI-158 and ARI-160 in dogs and rats, respectively. In the present studies, the test compounds were given to groups of male beagle dogs and rats (N=3 in each group) intravenously (IV) at 2 mg/kg or orally (PO) at 10 mg/kg. IV doses were formulated in DMSO, while PO doses were formulated in a 50/50 mixture of PEG400 and Tween 80. Blood samples were collected at pre-dose and over a period of 24 hours post-dose. Plasma concentrations of the indolo-phosphoramidate compounds were determined by HPLC.

[2] = test system: EMT-6 cancer cells; assay: Anti-tumor activity in EMT-6 syngeneic mouse tumor model; type: in vivo; settings: 80 mpk
Protocol: This example describes in vivo studies that evaluated the anti-cancer efficacy of ARI-158 and ARI-160 in syngeneic mouse tumor models. Mice implanted subcutaneously with EMT-6 cancer cells were treated with ARI-158 and ARI-160, or vehicle controls, as described below.
A monolayer culture of tumor cells was maintained in vitro in DMEM or RPMI1640 medium supplemented with 10% fetal bovine serum at 37° C. in an atmosphere of 5% CO2. Cells in exponential growth phase were harvested and quantitated by cell counter before tumor inoculation.
EMT-6 syngeneic mouse tumor models were generated by inoculating female BALB/C 6 mice with EMT-6 cancer cells at their right lower flank.
Each mouse was inoculated subcutaneously with tumor cells in 0.1 mL of PBS. Treatments were started when the mean tumor size reached approximately 80-120 mm^3 (around 100 mm^3). The administration of the test compounds and the animal number in each study group are shown in the study design. The date of tumor cell inoculation was denoted as day 0.
ARI-158 and ARI-160 were dissolved in DMSO at the final concentration of 26.7 mg/ml and stored at room temperature.
Randomization of animals was started when the mean tumor size reached approximately 90 mm^3 to form the mouse study groups. The randomization was performed based on “Matched distribution” method using the multi-task method (StudyDirector™ software, version 3.1.399.19)/randomized block design. […]
Tumor volumes were measured twice per week in two dimensions using a caliper, and the volume was expressed in mm^3 using the formula: […]
where V is tumor volume, L is tumor length (the longest tumor dimension) and W is tumor width (the longest tumor dimension perpendicular to L). Dosing as well as tumor and body weight measurements was conducted in a Laminar Flow Cabinet. The body weights and tumor volumes were measured by using StudyDirector™ software (version 3.1.399.19).
Tumor growth inhibition percentage (TGI %) is an indicator for antitumor activity of a drug compound, and expressed as: […]
where T and C are the mean tumor volume (or weight) of the treated and control groups, respectively, on a given day. Statistical analysis of the difference in mean tumor volume (MTV) among the groups was conducted using the data collected on the day when the MTV of the vehicle group reached the humane endpoints, so that TGI could be derived for all or most mice enrolled in the study.

[3] = IV 2 mg/kg ARI-160, Animal_ID 1
[4] = IV 2 mg/kg ARI-160, Animal_ID 2
[5] = IV 2 mg/kg ARI-160, Animal_ID 3
[6] = PO 10 mg/kg ARI-160, Animal_ID 4
[7] = PO 10 mg/kg ARI-160, Animal_ID 5
[8] = PO 10 mg/kg ARI-160, Animal_ID 6

CCC(=O)c1csc(C(=O)c2cn(COP(=O)([O-])[O-])c3cc(F)ccc23)n1.[Na+].[Na+] [ARI-160]
AUCinf [1, 3]: 5140 ng·h/mL | AUClast [1, 3]: 5120 ng·h/mL | Cl [1, 3]: 6.48 mL/min/kg | Cmax [1, 3]: 16100 ng/mL | MRTinf [1, 3]: 13.8 min | MRTlast [1, 3]: 12.6 min | Tmax [1, 3]: 4.98 min | T½ [1, 3]: 37.2 min | Vss [1, 3]: 0.0898 L/kg | AUCinf [1, 4]: 3950 ng·h/mL | AUClast [1, 4]: 3930 ng·h/mL | Cl [1, 4]: 8.43 mL/min/kg | Cmax [1, 4]: 12100 ng/mL | MRTinf [1, 4]: 15.6 min | MRTlast [1, 4]: 13.8 min | Tmax [1, 4]: 4.98 min | T½ [1, 4]: 51.6 min | Vss [1, 4]: 0.132 L/kg | AUCinf [1, 5]: 8590 ng·h/mL | AUClast [1, 5]: 8590 ng·h/mL | Cl [1, 5]: 3.88 mL/min/kg | Cmax [1, 5]: 24600 ng/mL | MRTinf [1, 5]: 10.8 min | MRTlast [1, 5]: 10.8 min | Tmax [1, 5]: 4.98 min | T½ [1, 5]: 54 min | Vss [1, 5]: 0.042 L/kg | AUCinf ([1]; IV 2 mg/kg ARI-160, Mean): 5890 ng·h/mL | AUClast ([1]; IV 2 mg/kg ARI-160, Mean): 5880 ng·h/mL | Cl ([1]; IV 2 mg/kg ARI-160, Mean): 6.27 mL/min/kg | Cmax ([1]; IV 2 mg/kg ARI-160, Mean): 17600 ng/mL | MRTinf ([1]; IV 2 mg/kg ARI-160, Mean): 13.2 min | MRTlast ([1]; IV 2 mg/kg ARI-160, Mean): 12.6 min | Tmax ([1]; IV 2 mg/kg ARI-160, Mean): 4.98 min | T½ ([1]; IV 2 mg/kg ARI-160, Mean): 47.4 min | Vss ([1]; IV 2 mg/kg ARI-160, Mean): 0.0878 L/kg | bioavailability ([1]; IV versus oral dosing): better bioavailability with an IV dosing | AUCinf [1, 6]: 23.3 ng·h/mL | AUClast [1, 6]: 13.3 ng·h/mL | Cmax [1, 6]: 12.7 ng/mL | MRTinf [1, 6]: 139 min | MRTlast [1, 6]: 51.8 min | Tmax [1, 6]: 15 min | T½ [1, 6]: 94.8 min | AUCinf [1, 7]: 51.8 ng·h/mL | AUClast [1, 7]: 32.1 ng·h/mL | Cmax [1, 7]: 10.1 ng/mL | MRTinf [1, 7]: 505 min | MRTlast [1, 7]: 195 min | Tmax [1, 7]: 15 min | T½ [1, 7]: 368 min | AUCinf [1, 8]: 22.5 ng·h/mL | AUClast [1, 8]: 11.0 ng·h/mL | Cmax [1, 8]: 6.75 ng/mL | MRTinf [1, 8]: 574 min | MRTlast [1, 8]: 121 min | Tmax [1, 8]: 15 min | T½ [1, 8]: 364 min | AUCinf ([1]; PO 10 mg/kg ARI-160, Mean): 32.5 ng·h/mL | AUClast ([1]; PO 10 mg/kg ARI-160, Mean): 18.8 ng·h/mL | Cmax ([1]; PO 10 mg/kg ARI-160, Mean): 9.85 ng/mL | F. ([1]; PO 10 mg/kg ARI-160, Mean): 0.110% | MRTinf ([1]; PO 10 mg/kg ARI-160, Mean): 406 min | MRTlast ([1]; PO 10 mg/kg ARI-160, Mean): 122 min | Tmax ([1]; PO 10 mg/kg ARI-160, Mean): 15 min | T½ ([1]; PO 10 mg/kg ARI-160, Mean): 275 min | provision of ARI-143 ([1]; after administration of ARI-160): provided ARI-143 after oral as well as IV administration | TGI ([2]; study day 6): 0.01% | TGI ([2]; study day 10): 30.95% | TGI ([2]; study day 13): 30.58% | TGI ([2]; study day 17): 20.47% | TGI ([2]; study day 20): 32.25% | TGI ([2]; study day 24): 33.19% | TGI ([2]; study day 27): 22.24% | TGI ([2]; study day 31): 12.40%
